The source of these data is PubChem BioAssay (NCI).

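Dose response: 5 concentrations. Exposure: 48 h. Format: 96-well plates. Endpoint: linear interpolation; highest concentration if not reached. Definition used: TGI = concentration required for complete inhibition of growth.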

What all share (test): NCI tumour cell line growth inhibition, 48 h
For experiment [1], the system named is RXF 393 renal.
Experiment [2] concerns UACC-62 melanoma.
Experiment [3] concerns UACC-257 melanoma.
For experiment [4], the system named is OVCAR-8 ovarian.
Experiment [5] concerns NCI-H23 lung.
Experiment [6] deals with OVCAR-3 ovarian.
Experiment [7] has as its system CAKI-1 renal.
Experiment [8] deals with SR leukemia.
In experiment [9] the test system is IGROV1 ovarian.
The subject of experiment [10] is HL-60(TB) leukemia.
Experiment [11] concerns ACHN renal.
Experiment [12] has as its system MDA-MB-231 breast.

For `CCN(CC)CCCn1c(=O)c2cccnc2n2c3c(=O)n(C)c(=O)n(C)c3nc12`, the TGI in experiment [1], in experiment [2], in experiment [3], in experiment [4], in [5] and in experiment [6] was over 100 µM each time. The TGI in [7], in experiment [8], in experiment [9], in experiment [10], in experiment [11] and in experiment [12] was over 100 µM each time.
Take `O=C1/C(=C/c2ccc(Br)s2)NC(=S)N1CN1CCOCC1`: the TGI is 59.7 µM in experiment [1]; 48.6 µM in experiment [2]; over 100 µM in experiment [3]; over 100 µM in [4]; over 100 µM in [5]; over 100 µM in experiment [6]. In addition, the TGI is 66.5 µM in experiment [7]; 55.2 µM in experiment [8]; over 100 µM in experiment [9]; 62.6 µM in experiment [10]; over 100 µM in experiment [11]; over 100 µM in experiment [12].
With `NCCCC(N)C(=O)O` (configuration not stated), the TGI in experiment [1], in experiment [2], in experiment [3], in experiment [4], in experiment [5] and in [6] was over 100 µM in each case. Moreover, the TGI in experiment [7], in experiment [8], in experiment [9], in experiment [10], in experiment [11] and in experiment [12] was over 100 µM in each case.
For `CCOC(=O)C1C(=O)CC(O)(c2ccccc2)C(C(=O)OCC)C1c1ccc(OC)cc1` (configuration not stated), the TGI in experiment [1] is 50.5 µM; in experiment [2] it was over 100 µM; in experiment [3], over 100 µM; in [4] it was over 100 µM; in experiment [5], over 100 µM; in experiment [6], 42.8 µM. Also, the TGI in [7] was over 100 µM; in experiment [8], 32.5 µM; in experiment [9], over 100 µM; in experiment [10], over 47.8 µM; in experiment [11] it was over 100 µM; in experiment [12], over 100 µM.
For `N#CC(C#N)=C1CCCS(=O)(=O)c2ccccc21`, the TGI in experiment [1], in experiment [2], in [3], in [4], in [5] and in experiment [6] was over 100 µM in each case. In addition, the TGI in experiment [7], in experiment [8], in experiment [9], in [10], in experiment [11] and in [12] was over 100 µM in each case.
Turning to `CCOc1ccc(N=C/C=C(\Cl)c2ccc3ccccc3c2)cc1`, the TGI in [1] came to 34.1 µM; in experiment [2] it was 31 µM; in experiment [3], 30.8 µM; in [4] it was 32.8 µM; in experiment [5], 25.1 µM; in experiment [6] it was 31.5 µM. Besides, the TGI in [7] worked out at 34 µM; in experiment [8] it was 5.31 µM; in experiment [9], 41.5 µM; in [10] it was 33.8 µM; in experiment [11], 32.7 µM; in experiment [12] it was 30.9 µM.
On to `O=C1C(Br)=Cc2c(Cl)sc(Cl)c21`, for which the TGI in [1] is 6.17 µM; in [2] it was 27.2 µM; in experiment [3], over 28.5 µM; in experiment [4], 33.3 µM; in experiment [5], 30.6 µM; in experiment [6], 12.1 µM. Moreover, the TGI in experiment [7] stood at 8.99 µM; in experiment [8], 15.5 µM; in [9] it was 7.67 µM; in experiment [10], 6.3 µM; in [11], 9.83 µM; in experiment [12], 8.91 µM.
Turning to `C=CC/C(C(=O)OC)=C(/C(=O)OC)N(CCC)CCC`, the TGI in experiment [1], in experiment [2], in [3], in experiment [4], in experiment [5] and in experiment [6] was over 100 µM throughout. Moreover, the TGI in experiment [7] is over 100 µM; in [8], 55.3 µM; in experiment [9], over 100 µM; in experiment [10], 64.4 µM; in experiment [11] it was over 100 µM; in experiment [12], over 100 µM.
Regarding `O=C1OC[C@@H]2Cc3c([nH]c4ccccc34)[C@@H](c3ccc(O)cc3)N12`, the TGI is 64.3 µM in experiment [1]; 69.8 µM in [2]; 72.2 µM in [3]; over 71.7 µM in experiment [4]; 54.6 µM in [5]; 43.8 µM in experiment [6]. The TGI in experiment [7] was 97.5 µM; in experiment [8] it was over 87.4 µM; in experiment [9], 61.1 µM; in [10], over 81.7 µM; in experiment [11], over 74.2 µM; in [12], over 83.4 µM.
`N#Cc1c(OCCF)c2ccccc2n2c1nc1ccccc12`: the TGI in experiment [1], in [2], in experiment [3], in experiment [4], in experiment [5] and in [6] was over 100 µM throughout. Moreover, the TGI in experiment [7], in experiment [8], in experiment [9], in experiment [10], in experiment [11] and in experiment [12] was over 100 µM throughout.
Consider `O=C1C(C=NCCc2c[nH]c3ccccc23)C(C(F)(F)F)=NN1c1nc2ccccc2s1` (configuration not stated), for which the TGI in experiment [1] was 48.5 µM; in [2], 43.6 µM; in [3], 41.9 µM; in experiment [4], over 100 µM; in [5], over 100 µM; in experiment [6], 50.1 µM. Also, the TGI in experiment [7] is over 100 µM; in experiment [8], 93.9 µM; in [9], over 100 µM; in experiment [10], 47.8 µM; in experiment [11], 83.5 µM; in experiment [12], over 100 µM.
